Test results: PubChem BioAssay AID493130 (Broad Institute, 2011)
Results filed as inconclusive are left out. Active and inactive are the calls of the source.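 Rule for the calls: active = signal-lowering compounds whose fitted half-maximal concentration is at most ten times their highest tested dose; inconclusive = flat fit between -30 and -70%, or poor fit; inactive = flat within 30%, signal rising, or potency beyond limit.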

What follows are molecules tested against POS-1 (Caenorhabditis elegans) binding to mex-3 RNA (assay: inhibitors of POS-1/mex-3 RNA binding, dose response, counter-screen for MEX-5 RNA-binding inhibitor project, biochemical, fluorescence polarization, cherry-picked samples, set 2 (AID 493130;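 note: POS-1 as maltose binding protein fusion made in E. coli with FITC RNA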)). Settings: POS-1/mex-3 RNA fluorescence polarization, 1 h.

SMILES | AC50
CNC(=O)/C(C#N)=C/c1ccc(-c2nc3ccccc3s2)o1 | 3.91 µM
O=C1CCNc2ccc(-c3ccccc3)cc21 | 1.34 µM
Cn1c(=O)c(Nc2ccc(Cl)cc2)c2c3c(cccc31)C(=O)c1ccccc1-2 | 0.907 µM
O=C(O)C1Nc2c(Cl)cc(Cl)cc2C2C=CCC12 (stereo not given) | 5.13 µM
O=c1ccc2cc3c([nH]c4ccc(Br)cc43)oc-2c1O | 1.64 µM
CCOc1cc(/C=C2\CCCc3c2nc2ccccc2c3C(=O)O)ccc1OC | 0.948 µM
CN1CCN(c2ccc([N+](=O)[O-])c3no[n+]([O-])c23)CC1 | 3.3 µM
Cn1c(=O)c2[nH]c(-c3ccccc3)c(O)c2n(C)c1=O | 2.27 µM
Cc1ccc(O)c(C(=O)c2cc(C#N)c(=O)n(-c3nccs3)c2)c1 | 4.09 µM
Cc1c2ccccc2nc2c(F)c(NCCO)c(F)c(F)c12 | 0.854 µM
Nc1ccc(N(CCO)CCO)cc1 | 6.49 µM
COc1ccc(N=Nc2nc3ccc(Br)cc3n2C)cc1 | 2.16 µM
CN(CCC#N)C(=O)COC(=O)c1c2c(nc3ccccc13)/C(=C/c1ccco1)CC2 | > 10 µM (inactive)
O=[N+]([O-])c1cc(/C=N\Nc2nccs2)ccc1O | 2.55 µM
CN1CC=C2C(C#N)=C(N)C(C#N)(C#N)C(Cc3ccccc3)C2C1 (stereo not given) | 6.58 µM
COc1ccc2c(c1)NP(=S)(Oc1ccccc1)N2 (stereo not given) | 6.91 µM
CCNC(=S)N/N=C/c1sc(N2CCCCC2)nc1-c1cccs1 | 4.68 µM
O=C(O)c1ccccc1NS(=O)(=O)c1cccc(-n2sc3ccccc3c2=O)c1 | 8.72 µM

Same assay, conditions: POS-1/mex-3 RNA fluorescence polarization, 1 h; at 10 µM (top of the series)

SMILES | activity change, negative = inhibition
Cc1cc(=O)oc(C)c1C(=O)Nc1c(C)n(C)n(-c2ccccc2)c1=O | inactive
NC(=S)N=Nc1c(O)[nH]c2ccccc12 | inactive
COc1ccc(/C=C2\C(=O)NC(=S)N2C(=O)c2ccc(C)cc2)cc1 | inactive
C=CCOc1ccc(C(c2c(C(=O)O)[nH]c3ccccc23)c2c(C(=O)O)[nH]c3ccccc23)cc1 | inactive
O=[N+]([O-])c1ccc(-c2cn3nc(-c4ccccc4)c(-c4ccccc4)nc3n2)cc1 | inactive
Cc1ccc(C(=O)N/C(=C\c2ccc(-c3ccc([N+](=O)[O-])cc3)o2)C(=O)NC2CCS(=O)(=O)C2)cc1 (stereo not given) | inactive
O=c1[nH]nc(CNc2ccc(Cl)cc2Cl)c2ccccc12 | inactive
CCOC(=O)CNc1nc2ccccc2n2c(C)nnc12 | inactive
CN(N)c1ccc2c(C(F)(F)F)cc(C(F)(F)F)nc2n1 | inactive
Cc1ccc(NC(=O)CCC(=O)NNC(=S)Nc2ccc(F)cc2)c(C)c1 | inactive
Oc1cccc(/C=N/NC(=S)Nc2cccnc2)c1O | inactive
CCCc1cc(C(=O)Cc2ccc(C(=O)OCC)o2)c(O)cc1O | inactive
CN(C)C1C(=O)C(C(N)=O)=C(O)C2(O)C(=O)C3=C(O)c4c(O)cccc4C(C)(O)C3CC12 (stereo not given) | inactive
COc1ccc(N=C2S/C(=C\c3cc(C)n(C)c3C)C(=O)N2C)cc1 | inactive
O=[N+]([O-])c1cc([N+](=O)[O-])c2cccnc2c1Oc1ccccc1O | inactive
Cc1cccc2c(N=Nc3ccccc3)c(O)[nH]c12 | inactive
CCOC(=O)c1c(=O)n(O)c2ccc(OC)cc2[n+]1[O-] | inactive
O=C(O)c1c2c(nc3ccccc13)/C(=C/c1ccc(O)cc1)CC2 | inactive
CSCCCN1CCC(n2nccc2NC(=O)CCCc2ccccc2)CC1 | inactive
CCOc1c(O)ccc(/C=C2\SC(=S)NC2=O)c1[N+](=O)[O-] | inactive
Cc1cc(C)c[n+](-c2[nH]c(=O)sc2/C=N/N=C(\N)[S-])c1 | inactive
O=C1/C(=C\c2ccc(Br)o2)Cc2ccccc21 | inactive
O=c1[nH]c(=S)n(-c2ccc(Cl)cc2)c(O)c1C=Nc1ccc(N2CCOCC2)cc1 | inactive
CC(=O)c1cc(NC(=O)c2ccc([N+](=O)[O-])cc2)c(=O)oc1C | inactive
COc1ccc(OC)c(-n2c(-c3cc(-c4ccco4)[nH]n3)n[nH]c2=S)c1 | inactive
Cc1c(O)ccc(-c2[nH]ncc2-c2nc3ccccc3s2)c1O | inactive

SMILES | activity change, negative = inhibition
Cc1ccc2c(c1)c(C1=NC(=S)NC1=O)c(O)n2C | inactive
COC(=O)c1ccccc1-c1ccc(C(c2c(C)[nH][nH]c2=O)c2c(C)[nH][nH]c2=O)o1 | inactive
NC(=S)N=Nc1c(O)[nH]c2cc(F)c(F)cc12 | inactive
Cc1cc(/C=C2\C(=O)NC(=O)N(c3cccc(Br)c3)C2=O)c(C)n1C | inactive
CC(C)CN1CCN(Cc2cccc3ncccc23)CC1CCO (stereo not given) | inactive
CCOC(=O)/C=c1\s/c(=C\c2ccc(-c3ccccc3)cc2)c(=O)n1CC(=O)NCc1ccc2c(c1)OCO2 | inactive
CN1CCCc2cc(C=O)ccc21 | inactive
NC(=O)c1cccc2cc3ccccc3cc12 | inactive
CCCCN1C=CC(=C2C(=O)c3ccccc3C2=O)C=C1 | inactive
N#CC1=C(N)Oc2c(O)cc3ccccc3c2C1c1ccsc1 (stereo not given) | inactive
Cc1nnc(-c2cccc(Br)c2)c2cn(-c3cccc(Br)c3)nc12 | inactive
COc1ccccc1N=Nc1c(C)[nH][nH]c1=O | inactive
CSc1nc(N)c(N=Nc2ccc([As](=O)(O)O)cc2)c(=O)[nH]1 | inactive
COC(=O)c1ccc(CC(=O)c2c(C)cc(O)cc2O)o1 | inactive
Cc1snc2sc(C(=O)c3ccc(Br)cc3)c(N)c12 | inactive
O=c1[nH]cnc2c1C(c1ccc(Cl)cc1)c1c(nc[nH]c1=O)O2 | inactive
Nc1nc(N)c2[nH]cnc2n1 | inactive
COc1ccc(-c2cn[nH]c2-c2ccc(OCC(=O)NN)cc2O)cc1 | inactive
CCCCNc1c(N)n(CCCC)c(=O)[nH]c1=O | inactive
O=C(NNC(=S)NC(=O)c1ccccc1[N+](=O)[O-])c1ccccc1[N+](=O)[O-] | inactive
CCOC(=O)N1CCN(c2nc3ccccc3nc2C(C#N)C(=O)NCCc2ccccc2)CC1 (stereo not given) | inactive
CCOC(=O)CC1=C(C(=O)OCC)C(c2ccc(OC)c(OC)c2)C(C#N)=C(N)O1 (stereo not given) | inactive
CCOc1ccc(/C=N/n2c(C)nc3ccccc3c2=O)cc1 | inactive
CCOC(=O)C1C(=O)C=C(/C=C/c2ccc(N(C)C)cc2)CC1c1ccccc1 (stereo not given) | inactive
CCOC(=O)NC(=O)/C(C#N)=C\Nc1sccc1C(=O)OC | inactive
COc1cc(/C=C2/C(C)=C(C#N)c3nc(N)c(C#N)c(C)c32)ccc1OCC(=O)O | inactive

SMILES | activity change, negative = inhibition
O=C(N/N=C/c1c(O)ccc2ccccc12)c1ccc[n+](CCO)c1 | inactive
CN1C(=O)/C(=C/c2ccco2)SC1=Nc1cccc(C(=O)O)c1 | inactive
O=c1[nH]c(=S)n(-c2ccccc2F)c(O)c1C=Nc1ccc(N2CCOCC2)cc1 | inactive
CC1=CC2=C(OC1N(C)C)c1cccc3cccc(c13)C2=O (stereo not given) | inactive
COc1ccc(C(=O)NNC(=O)C(=O)/C=C(\O)c2ccc(C)cc2)cc1 | inactive
O=C(O)CCCC(=O)NNc1nc(-c2ccccc2)c2cc(Cl)ccc2n1 | inactive
Cc1ccc2oc(=O)c(/C=C(\O)c3ccco3)nc2c1 | inactive
O=C(O)c1ccc(/C=C2\SC(=S)N(Nc3ccccc3)C2=O)cc1 | inactive
Cc1c(Cl)cccc1NC(=O)C(=O)NNS(=O)(=O)c1ccc(F)cc1 | inactive
O=C(CCN1C(=O)/C(=C\c2ccco2)SC1=S)Nc1ccc(C(=O)O)c(O)c1 | inactive
CC(=O)Nc1ccc2c(c1)C(=O)N(c1cccc(C)c1)C2=O | inactive
CC1=CC2=NC(=O)/C(=C\c3ccc(-c4cccc(Cl)c4)o3)C(=N)N2O1 | inactive
Oc1c(Cl)cc(Cl)c2c1NCCC2 | inactive
COCC(C)N1CCC(n2nccc2NC(=O)CCCc2ccccc2)CC1 (stereo not given) | inactive
CCC(COC(C)=O)Nc1nc2c([nH]1)c(=O)n(C)c(=O)n2C (stereo not given) | inactive
COc1ccccc1CN1CC(C(=O)NCCN(C)CCc2ccccc2)CCC1=O (stereo not given) | inactive
CCc1ccc(/C=C2\Oc3cc(OS(C)(=O)=O)ccc3C2=O)cc1 | inactive
CN1CCc2c(sc(NC(=O)C3CCCN3S(=O)(=O)c3ccc(Cl)s3)c2C(N)=O)C1 (stereo not given) | inactive
CCCCn1c(O)c(N=Nc2ccccn2)c2ccccc21 | inactive
CN1CCc2c(sc(NC(=O)c3ccc(S(=O)(=O)N4CCCCCC4)cc3)c2C(N)=O)C1 | inactive
NC1=NC(=O)/C(=C\C=C\c2ccccc2)S1 | inactive
O=S(=O)(O)c1nc2ccccc2n1Cc1ccc(Cl)cc1Cl | inactive
O=C(O)c1[nH]c2ccccc2c1C(c1cc(Br)ccc1O)c1c(C(=O)O)[nH]c2ccccc12 | inactive
N[C@@H](Cc1ccccc1)C(=O)N1CCC(C(=O)NCC(=O)Nc2ccc(F)cc2)CC1 | inactive
Cc1ccc(-c2cc(C(=O)O)c3cc(Br)ccc3n2)o1 | inactive
